Experimental data published in US8741854B2, “Compositions and methods for feeding poultry” (Bioenergy, Inc., priority 2009, dated 2014).

Tested on: male chicks of a commercial breed, "Cobb 500"
Assay: D-ribose supplementation of broiler chicks raised on a challenged rapid growth regimen
Assay type: in vivo, chicken (broiler chicks)
Conditions: D-ribose in drinking water, about 200 mg/kg body weight/day

Structure (SMILES): O=C[C@H](O)[C@H](O)[C@H](O)CO [D-ribose]
- observed cardiomyopathic incidences (days 0 to 43, challenged environment, approximately 5200 feet elevation, control 27.6%): 15.1%
- average weight and feed conversion versus control (birds weighed days 35 and 43, FIG. 1): slightly better in the control group, but the differences were not statistically significant
